The test system of the experiment is BDF1 mice, P388 leukemia ip, median survival T/C. The experiment can be described thus: NCI In Vivo Anticancer Drug Screen. Data for tumor model P388 Leukemia (intraperitoneal) in B6D2F1 (BDF1) mice. Particulars: endpoint: median survival time, higher = longer survival. In outline:
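Steps: implant the tumour, treat one group with compound and another with vehicle, record survival, then divide treated by control.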

Where [1] appears, read: dose: 12.5 mg/kg/injection, schedule: Q01DX009 (ip), vehicle: saline with Tween-80.
Setting [2] is: dose: 25.0 mg/kg/injection, schedule: Q01DX009 (ip), vehicle: saline with Tween-80.
[3] abbreviates: dose: 50.0 mg/kg/injection, schedule: Q04DX003 (ip), vehicle: saline with Tween-80.
[4] abbreviates: dose: 100.0 mg/kg/injection, schedule: Q04DX003 (ip), vehicle: saline with Tween-80.
Setting [5] is: dose: 50.0 mg/kg/injection, schedule: Q01DX009 (ip), vehicle: saline with Tween-80.
Where [6] appears, read: dose: 100.0 mg/kg/injection, schedule: Q01DX009 (ip), vehicle: saline with Tween-80.
Setting [7] is: dose: 400.0 mg/kg/injection, schedule: Q01DX009 (ip), vehicle: saline with Tween-80.
[8] abbreviates: dose: 6.25 mg/kg/injection, schedule: Q04DX003 (ip), vehicle: saline.
The mark [9] stands for this setting: dose: 12.5 mg/kg/injection, schedule: Q04DX003 (ip), vehicle: saline.
Where [10] appears, read: dose: 25.0 mg/kg/injection, schedule: Q04DX003 (ip), vehicle: saline.
[11] abbreviates: dose: 6.25 mg/kg/injection, schedule: Q01DX009 (ip), vehicle: saline.
Where [12] appears, read: dose: 12.5 mg/kg/injection, schedule: Q01DX009 (ip), vehicle: saline.
[13] abbreviates: dose: 25.0 mg/kg/injection, schedule: Q01DX009 (ip), vehicle: saline.
Setting [14] is: dose: 100.0 mg/kg/injection, schedule: Q01DX009 (ip), vehicle: Klucel (hydroxypropylcellulose) (HPC).
Where [15] appears, read: dose: 200.0 mg/kg/injection, schedule: Q01DX009 (ip), vehicle: Klucel (hydroxypropylcellulose) (HPC).
Where [16] appears, read: dose: 200.0 mg/kg/injection, schedule: Q04DX003 (ip), vehicle: Klucel (hydroxypropylcellulose) (HPC).
[17] abbreviates: dose: 100.0 mg/kg/injection, schedule: Q04DX003 (ip), vehicle: Klucel (hydroxypropylcellulose) (HPC).
Where [18] appears, read: dose: 400.0 mg/kg/injection, schedule: Q04DX003 (ip), vehicle: Klucel (hydroxypropylcellulose) (HPC).
Setting [19] is: dose: 200.0 mg/kg/injection, schedule: Q04DX003 (ip), vehicle: saline with Tween-80.

Where “and” joins values, the source holds several entries; their conditions need not be identical. Identical values can stand only once. Inconclusive results and toxic doses are left out.

From PubChem BioAssay AID328 (DTP/NCI, 2004) come the findings set out here.

As to `Nc1ccc(OCc2ccccc2)cc1`, the T/C reads like this: (dose: 6.25 mg/kg/injection, schedule: Q01DX009 (ip), vehicle: saline with Tween-80) 90 % of control; under setting [1], 100 % of control; under setting [2], 100 % of control; (dose: 25.0 mg/kg/injection, schedule: Q04DX003 (ip), vehicle: saline with Tween-80) 95 % of control; under setting [3], 100 % of control; under setting [4], 100 % of control.

As for `Oc1ccc(I)c2cccnc12`, the T/C reads like this: (dose: 62.5 mg/kg/injection, schedule: Q01DX010 (ip), vehicle: carboxymethylcellulose (CMC)) 90 % of control; (dose: 250.0 mg/kg/injection, schedule: Q01DX010 (ip), vehicle: carboxymethylcellulose (CMC)) 100 % of control; (dose: 500.0 mg/kg/injection, schedule: Q01DX010 (ip), vehicle: carboxymethylcellulose (CMC)) 110 % of control.

Regarding `NN=C(NN)NN`, the T/C is 105 % of control (dose: 50.0 mg/kg/injection, schedule: Q01DX009 (ip), vehicle: saline); 105 % of control (dose: 100.0 mg/kg/injection, schedule: Q01DX009 (ip), vehicle: saline); 96 % of control (dose: 200.0 mg/kg/injection, schedule: Q01DX009 (ip), vehicle: saline).

Take `N#CCCN(C(=S)Nc1ccc(Cl)c(Cl)c1)C1CCCCC1`: the T/C is 98 % of control and 117 % of control under setting [5]; 100 % of control and 119 % of control under setting [6]; 103 % of control and 119 % of control (dose: 200.0 mg/kg/injection, schedule: Q01DX009 (ip), vehicle: saline with Tween-80); 106 % of control under setting [7].

With `O=C(O)C1CCC2CCCCC2[N-]1.O=C(O)C1CCC2CCCCC2[N-]1.[Cu+2]` (stereo not given), the T/C under setting [8] was 100 % of control, the T/C under setting [9] is 90 % of control and the T/C under setting [10] was 100 % of control.

`C=CC[n+]1ccc(/C=N\NC(N)=S)c2ccccc21`: the T/C is 111 % of control under setting [11], 101 % of control under setting [12] and 106 % of control under setting [13].

As for `CCN(CC)C(=O)c1ccc([N+](=O)[O-])cc1`, the T/C was 103 % of control (dose: 50.0 mg/kg/injection, schedule: Q01DX009 (ip), vehicle: Klucel (hydroxypropylcellulose) (HPC)); 95 % of control (dose: 50.0 mg/kg/injection, schedule: Q04DX003 (ip), vehicle: Klucel (hydroxypropylcellulose) (HPC)); 100 % of control under setting [14]; 89 % of control under setting [15]; 104 % of control under setting [16].

As to `COc1cc([C@@H]2c3cc4c(cc3[C@H](OC3OC5COC(c6ccccc6)OC5C(O)C3O)[C@H]3COC(=O)[C@H]23)OCO4)cc(OC)c1OC` (stereo not given in full), the T/C runs as follows: (dose: 3.1 mg/kg/injection, schedule: Q01DX010 (ip), vehicle: carboxymethylcellulose (CMC)) 180 % of control; (dose: 6.2 mg/kg/injection, schedule: Q01DX010 (ip), vehicle: carboxymethylcellulose (CMC)) 210 % of control; (dose: 12.5 mg/kg/injection, schedule: Q01DX010 (ip), vehicle: carboxymethylcellulose (CMC)) 235 % of control; (dose: 25.0 mg/kg/injection, schedule: Q01DX010 (ip), vehicle: carboxymethylcellulose (CMC)) 270 % of control; (dose: 50.0 mg/kg/injection, schedule: Q01DX010 (ip), vehicle: carboxymethylcellulose (CMC)) 300 % of control.

With `CCCCCCCC(=O)NCCCC`, the T/C reads like this: (dose: 100.0 mg/kg/injection, schedule: Q01DX001 (ip), vehicle: Klucel (hydroxypropylcellulose) (HPC)) 104 % of control; under setting [17], 91 % of control; (dose: 200.0 mg/kg/injection, schedule: Q01DX001 (ip), vehicle: Klucel (hydroxypropylcellulose) (HPC)) 86 % of control; (dose: 400.0 mg/kg/injection, schedule: Q01DX001 (ip), vehicle: Klucel (hydroxypropylcellulose) (HPC)) 104 % of control; under setting [18], 100 % of control.

In the case of `CCCCCCCNC(=O)Nc1cc([N+](=O)[O-])ccc1C`, the T/C reads like this: under setting [4], 100 % of control; under setting [19], 100 % of control; (dose: 400.0 mg/kg/injection, schedule: Q04DX003 (ip), vehicle: saline with Tween-80) 104 % of control.

Consider `CN(C)c1ccc(C(/C=N\O)(c2ccc(N(C)C)cc2)c2ccc(N(C)C)cc2)cc1`, for which the T/C is, setting by setting: under setting [17], 104 % of control; under setting [16], 100 % of control; under setting [18], 109 % of control.

Turning to `OCCN=Cc1ccccc1`, the T/C reads like this: under setting [4], 100 % of control; under setting [19], 100 % of control.

For `O=[N+]([O-])c1ccc(Cl)c2c([N+](=O)[O-])cccc12`, the T/C is, setting by setting: under setting [3], 104 % of control; under setting [4], 109 % of control; under setting [19], 109 % of control.

Turning to `CCCCCCCCCCC(=O)CCCCCC`, the T/C (dose: 100.0 mg/kg/injection, schedule: Q04DX003 (ip), vehicle: other) is 104 % of control; the T/C (dose: 200.0 mg/kg/injection, schedule: Q04DX003 (ip), vehicle: other) is 122 % of control; the T/C (dose: 400.0 mg/kg/injection, schedule: Q04DX003 (ip), vehicle: other) is 109 % of control.

Consider `Cc1nc(C(N)=O)c(=O)[nH]c1C`, for which the T/C was 104 % of control under setting [8]; 109 % of control under setting [9]; 100 % of control under setting [10]; 88 % of control (dose: 50.0 mg/kg/injection, schedule: Q04DX003 (ip), vehicle: saline); 104 % of control (dose: 100.0 mg/kg/injection, schedule: Q04DX003 (ip), vehicle: saline sonified); 104 % of control (dose: 200.0 mg/kg/injection, schedule: Q04DX003 (ip), vehicle: saline sonified).

For `CCOC(=O)/C(C#N)=C/c1ccc(O)c(OC)c1`, the T/C reads like this: under setting [14], 105 % of control; under setting [17], 95 % of control; under setting [15], 110 % of control; under setting [16], 100 % of control; (dose: 400.0 mg/kg/injection, schedule: Q01DX009 (ip), vehicle: Klucel (hydroxypropylcellulose) (HPC)) 95 % of control; under setting [18], 100 % of control.

For the compound `CC1CN(Cc2ccccc2O)CC(C)N1` (stereo not given), the T/C was 103 % of control (dose: 6.25 mg/kg/injection, schedule: Q04DX003 (ip), vehicle: water); 103 % of control (dose: 12.5 mg/kg/injection, schedule: Q04DX003 (ip), vehicle: water); 103 % of control (dose: 25.0 mg/kg/injection, schedule: Q04DX003 (ip), vehicle: water); 109 % of control (dose: 50.0 mg/kg/injection, schedule: Q04DX003 (ip), vehicle: water); 97 % of control (dose: 100.0 mg/kg/injection, schedule: Q04DX003 (ip), vehicle: water).

Regarding `O=S(=O)(O)CCN1CCN(CCO)CC1`, the T/C runs as follows: (dose: 100.0 mg/kg/injection, schedule: Q04DX003 (ip), vehicle: saline) 91 % of control; (dose: 200.0 mg/kg/injection, schedule: Q04DX003 (ip), vehicle: saline) 108 % of control; (dose: 400.0 mg/kg/injection, schedule: Q04DX003 (ip), vehicle: saline) 95 % of control.

For the compound `Cc1c2c(O)c(O)c(O)cc2c[n+]2ccccc12`, the T/C runs as follows: under setting [11], 100 % of control; under setting [12], 106 % of control; under setting [13], 123 % of control.

For `FC(F)(F)c1cccc(-c2nc3nc(Cl)c(Cl)nc3[nH]2)c1`, the T/C by setting is: under setting [2], 99 % of control; under setting [5], 94 % of control; under setting [3], 108 % of control; under setting [6], 103 % of control.

Take `O=C1c2ccc(O)cc2C(=O)c2ccc(O)cc21`: the T/C reads like this: (dose: 66.0 mg/kg/injection, schedule: Q01DX009 (ip), vehicle: saline with Tween-80) 109 % of control; under setting [6], 109 % of control; (dose: 150.0 mg/kg/injection, schedule: Q01DX009 (ip), vehicle: saline with Tween-80) 109 % of control; under setting [7], 120 % of control.

Consider `CC1=NNB(O)c2ccsc21`, for which the T/C under setting [1] was 107 % of control, the T/C under setting [2] is 90 % of control and the T/C under setting [5] is 96 % of control.
